Measurements as given in patent publication US6620811B2, “Isonicotin- and nicotinamide derivatives of benzothiazoles” (Hoffmann-La Roche Inc., priority 2001, dated 2003).

Assays:
[1] = target: T1, human adenosine A2A receptor (Homo sapiens, UniProt P29274); assay: Human adenosine A2A receptor [3H]-SCH-583261 binding assay (SPA, CHO cell membranes); conditions: [3H]-SCH-583261 1 nM; membranes of CHO cells expressing the recombinant receptor; Ki by Cheng-Prussoff equation; read-out: hA2 (pKi) (converted)
T1 construct: expressed in transfected cells; host or cells: CHO cells, semliki forest virus expression system; membrane preparation
Experimental: Human Adenosine A2A Receptor
The human adenosine A2A receptor was recombinantly expressed in chinese hamster ovary (CHO) cells using the semliki forest virus expression system. Cells were harvested, washed twice by centrifugation, homogenised and again washed by centrifugation. The final washed membrane pellet was suspended in a Tris (50 mM) buffer containing 120 mM NaCl, 5 mM KCl, 2 mM CaCl2 and 10 mM MgCl2 (pH 7.4) (buffer A). The [^3H]-SCH-583261 (Dionisotti et al., 1997, Br J Pharmacol 121, 353; 1 nM) binding assay was carried out in 96-well plates in the presence of 2.5 μg of membrane protein, 0.5 mg of Ysi-poly-1-lysine SPA beads and 0.1 U adenosine deaminiase in a final volume of 200 μl of buffer A. Non-specific binding was defined using xainthine amine congener (XAC; 2 μM). Compounds were tested at 10 concentrations from 10 μM-0.3 nM. All assays were conducted in duplicate and repeated at least two times. Assay plates were incubated for 1 hour at room temperature before centrifugation and then bound ligand determined using a Packard Topcount scintillation counter. IC50 values were calculated using a non-linear curve fitting program and Ki values calculated using the Cheng-Prussoff equation.

T1 sequence (P29274 whole entry): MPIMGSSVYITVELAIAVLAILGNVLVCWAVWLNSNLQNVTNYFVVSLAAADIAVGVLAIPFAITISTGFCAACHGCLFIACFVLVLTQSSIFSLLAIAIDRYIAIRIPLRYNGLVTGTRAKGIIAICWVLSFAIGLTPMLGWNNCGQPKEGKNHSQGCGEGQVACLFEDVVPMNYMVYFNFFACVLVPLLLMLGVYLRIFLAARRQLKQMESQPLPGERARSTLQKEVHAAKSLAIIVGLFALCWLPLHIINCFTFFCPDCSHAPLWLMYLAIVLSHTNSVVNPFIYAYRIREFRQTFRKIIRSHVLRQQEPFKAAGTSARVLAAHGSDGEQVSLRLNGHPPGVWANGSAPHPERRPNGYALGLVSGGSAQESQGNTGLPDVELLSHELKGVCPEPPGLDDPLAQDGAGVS

melting point [°C]	Ki [1] [nM]	Compound
93 to 96	–	COC[C@H]1CCN(Cc2cc(C(=O)Nc3nc4c(OC)ccc(N5CCOCC5)c4s3)ccn2)C1 [Example 106, (S)-2-(3-Methoxymethyl-pyrrolidin-1-ylmethyl)-N-(4-methoxy-7-morpholin-4-yl-benzothiazol-2-yl)-isonicotinamide]
–	1.07	CCCNc1cc(C(=O)Nc2nc3c(OC)ccc(N4CCOCC4)c3s2)ccn1 [Example 93, N-(4-Methoxy-7-morpholin-4-yl-benzothiazol-2-yl)-2-propylamino-isonicotinamide]
–	2.95	COc1ccc(N2CCOCC2)c2sc(NC(=O)c3ccnc(OC4CCCC4)c3)nc12 [Example 85, 2-Cyclopentyloxy-N-(4-methoxy-7-morpholin-4-yl-benzothiazol-2-yl)-isonicotinamide]
–	1.74	CCOC1CN(c2cc(C(=O)Nc3nc4c(OC)ccc(N5CCOCC5)c4s3)ccn2)C1 [Example 76, 2-(3-Ethoxy-azetidin-1-yl)-N-(4-methoxy-7-morpholin-4-yl-benzothiazol-2-yl)-isonicotinamide]
–	1.58	CCCCNCc1cc(C(=O)Nc2nc3c(OC)ccc(N4CCOCC4)c3s2)ccn1 [Example 52, 2-Butylaminomethyl-N-(4-methoxy-7-morpholin-4-yl-benzothiazol-2-yl)-isonicotinamide]
–	1.74	COc1ccc(N2CCOCC2)c2sc(NC(=O)c3ccnc(NC4CCC4)c3)nc12 [Example 90, 2-Cyclobutylamino-N-(4-methoxy-7-morpholin-4-yl-benzothiazol-2-yl)-isonicotinamide]
–	3.09	CCOc1cc(C(=O)Nc2nc3c(OC)ccc(N4CCOCC4)c3s2)ccn1 [Example 3, 2-Ethoxy-N-(4-methoxy-7-morpholin-4-yl-benzothiazol-2-yl)-isonicotinamide]
–	1.91	COc1ccc(N2CCOCC2)c2sc(NC(=O)c3ccnc(N4CC(OC)C4)c3)nc12 [Example 75, 2-(3-Methoxy-azetidin-1-yl)-N-(4-methoxy-7-morpholin-4-yl-benzothiazol-2-yl)-isonicotinamide]
–	1	COc1ccc(N2CCOCC2)c2sc(NC(=O)c3ccnc(N4C[C@@H]5C[C@H]4CO5)c3)nc12 [Example 31, N-(4-Methoxy-7-morpholin-4-yl-benzothiazol-2-yl)-2-{(1S,4S)-2-oxa-5-aza-bicyclo[2.2.1]hept-5-yl}-isonicotinamide]

Second part, the molecule before the results:

Compound	melting point [°C]	Ki [1] [nM]
COc1ccc(N2CCOCC2)c2sc(NC(=O)c3ccnc(NCCN(C)C)c3)nc12 [Example 88, 2-(2-Dimethylamino-ethylamino)-N-(4-methoxy-7-morpholin-4-yl-benzothiazol-2-yl)-isonicotinamide]	–	0.457
COc1ccc(N2CCOCC2)c2sc(NC(=O)c3ccnc(NC4CCCC4)c3)nc12 [Example 89, 2-Cyclopentylamino-N-(4-methoxy-7-morpholin-4-yl-benzothiazol-2-yl)-isonicotinamide]	–	1.48
COc1ccc(N2CCOCC2)c2sc(NC(=O)c3ccnc(N4CCN(C)CC4)c3)nc12 [Example 10, N-(4-Methoxy-7-morpholin-4-yl-benzothiazol-2-yl)-2-(4-methyl-piperazin-1-yl)-isonicotinamide]	–	0.724
COc1ccc(C(=O)Nc2nc3c(OC)ccc(N4CCOCC4)c3s2)cn1 [Example 35, 6-Methoxy-N-(4-methoxy-7-morpholin-4-yl-benzothiazol-2-yl)-nicotinamide]	–	2
COc1ccc(N2CCOCC2)c2sc(NC(=O)c3ccc(OC(C)C)nc3)nc12 [Example 44, 6-Isopropoxy-N-(4-methoxy-7-morpholin-4-yl-benzothiazol-2-yl)-nicotinamide]	–	3.02
COc1ccc(N2CCCCC2)c2sc(NC(=O)c3ccnc(N4CCN(C)CC4)c3)nc12 [Example 100, N-(4-Methoxy-7-piperidin-1-yl-benzothiazol-2-yl)-2-(4-methyl-piperazin-1-yl)-isonicotinamide]	–	1.55
